These results are taken from patent US5874597A, “Certain aminosterol compounds and pharmaceutical compositions including these compounds” (priority 1995, dated 1999).

“Also recorded” adds a separate entry of the source. Some results are limits rather than exact numbers.

The first experiment has as its system human melanoma. As to the kind of experiment: effect on growth of human melanoma (time course, apoptosis). The class given is cell-based.
Conditions: not given
As for `CC(C)CCC[C@@H](C)[C@H]1CC[C@H]2[C@@H]3CC[C@H]4C[C@@H](NCCCNCCCCNCCCN)CC[C@]4(C)[C@H]3CC[C@]12C` [Compound 353], the “mechanism of cell death” value is listed as “apoptotic cell death has been induced”.

Still in this experiment, the particulars now being: FIG. 17A.
Consider `CC(C)CCC[C@@H](C)[C@H]1CC[C@H]2[C@@H]3CC[C@H]4C[C@@H](NCCCNCCCCNCCCN)CC[C@]4(C)[C@H]3CC[C@]12C` [Compound 353], for which the “time dependence of effect on growth of melanoma” value is “most pronounced over 48 hours”.

A further experiment concerns Xenopus tadpole (stage 59-60). Briefly: Xenopus tadpole assay. To be noted: 10 μg/ml; about 1 hour. The class given is in vivo, Xenopus laevis.
Consider `CC(COS(=O)(=O)O)C(=O)CC[C@@H](C)[C@H]1CC[C@H]2[C@@H]3[C@H](O)C[C@H]4C[C@@H](NCCCNCCCCN)CC[C@]4(C)[C@H]3CC[C@]12C` (single isomer, unassigned) [Compound 1360], for which the “tadpole response” value was “Swelling and lysis of certain erythrocytes occurred; also recorded: extensive vasocclusion occurred within 60 minutes throughout the tail”.

Still in this experiment, the particulars now being: in vivo.
As to `C[C@H](CCC(=O)O)[C@H]1CC[C@H]2[C@@H]3[C@H](O)C[C@@H]4C[C@H](NCCN)CC[C@]4(C)[C@H]3CC[C@]12C` [Compound 414], the “pharmacologic similarity in tadpole assay” value is reported as “pharmacologic activity similar to Fraction 1”. With `CC(C)CCC[C@@H](C)[C@H]1CC[C@H]2[C@@H]3[C@H](O)C[C@H]4C[C@H](N)CC[C@]4(C)[C@H]3CC[C@]12C` [Compound 1363], the “pharmacologic similarity in tadpole assay” value is listed as “pharmacologic activity similar to Fraction 1”.

The next experiment relates to NHE3.
Test: not given
The settings on record: cited from earlier work.
Turning to `N=C(N)NC(=O)c1nc(Cl)c(N)nc1N` [Amiloride, amiloride], the “effect on NHE3 kinetics (Km, Vmax)” value is reported as “affected only Vmax”.

For the next experiment, the system named is vitelline capillaries of chick embryo. Briefly: chick embryo vitelline capillary regression assay. The class given is in vivo. The arrangement: key to vitelline capillary regression: +: Vascular reactivity; 0: No vascular reactivity; +/-: Equivocal reactivity. The settings on record: 0.1 μg applied; 60 min. How it is done: Using the chick embryo vitelline capillaries assay, compounds were tested for their ability to induce capillary regression. Each compound was applied in 0.1 ml of 15% Ficol 400 and PBS onto the embryo, and vascular regression was assessed after 60 minutes.
The 3-day chick embryo consists of an embryonic disc from which numerous vessels emerge and return, forming a "figure 8"-shaped structure--the embryo in the center with vascular loops extending outward over both poles. […] Following a lag period of around 15 minutes, the constriction of continuity between capillary and secondary vessels, generally on the "venous" side, was observed. Continued pulsatile blood flow progressed, resulting in a "swelling" of the blind tube, followed by a pinching off of the remaining connection and formation of an enclosed vascular sac resembling a "blood island." This process progressed until only the largest vessels remained intact.
On to `COC(=O)CC[C@@H](C)[C@H]1CC[C@H]2[C@@H]3[C@H](O)C[C@@H]4C[C@@H](NCCCNCCCCNCCCN)CC[C@]4(C)[C@H]3CC[C@]12C` [Compound 411], for which the vitelline capillary regression came out at 0.

Still in this experiment, the particulars now being: Table II.
Take `CC(C)CCCC(C)[C@H]1CCC2C3CC[C@H]4C[C@@H](NCCCNCCCCN)CC[C@]4(C)C3CC[C@@]21C` (stereo partly shown): the “Chick embryo diss. assay, Minimum Effective Concentration” value (shortened to “Chick embryo diss. assay”) was more than 10 µg. With `CC(CCC(=O)O)[C@H]1CCC2C3CC[C@H]4C[C@H](NCCCNCCCCN)CC[C@]4(C)C3CC[C@@]21C` (stereo partly shown), the “Chick embryo diss. assay” value was more than 10 µg. Consider `CC(CCC(=O)O)[C@H]1CCC2C3CC[C@H]4C[C@@H](NCCCNCCCCN)CC[C@]4(C)C3CC[C@@]21C` (stereo partly shown), for which the “Chick embryo diss. assay” value stood at 0.001 µg. Same read-out and setting: the result for `CC(C)CCCC(C)[C@H]1CCC2C3C(CC[C@@]21C)[C@@]1(C)CC[C@@H](NCCCNCCCCN)C[C@@H]1C[C@H]3O` (stereo partly shown) reads more than 10 µg. On the same count and under the same terms, the result for `CC(C)CCCC(C)[C@H]1CCC2C3C(CC[C@@]21C)[C@@]1(C)CC[C@H](NCCCNCCCCN)C[C@@H]1C[C@H]3O` (stereo partly shown) reads 1 to 10 µg; that for `COC(=O)CCC(C)[C@H]1CCC2C3C(CC[C@@]21C)[C@@]1(C)CC[C@H](NCCCNCCCCNCCCN)C[C@@H]1C[C@H]3O` (stereo partly shown), 10 µg; that for `CC(CCC(=O)O)[C@H]1CCC2C3C(CC[C@@]21C)[C@@]1(C)CC[C@H](NCCCNCCCCNCCCN)C[C@@H]1C[C@H]3O` (stereo partly shown), 1 µg.

In the case of `COC(=O)CCC(C)[C@H]1CCC2C3C(CC[C@@]21C)[C@@]1(C)CC[C@H](NCCN)C[C@H]1C[C@H]3O` (stereo partly shown), the “Chick embryo diss. assay” value is more than 1 µg. Still for that read-out and setting: in the case of `COC(=O)CCC(C)[C@H]1CCC2C3C(CC[C@@]21C)[C@@]1(C)CC[C@@H](NCCN)C[C@H]1C[C@H]3O` (stereo partly shown) it was 0.01 µg. On the same count and under the same terms, in the case of `CC(CCC(=O)O)[C@H]1CCC2C3C(CC[C@@]21C)[C@@]1(C)CC[C@H](NCCCNCCCCN)C[C@@H]1C[C@H]3O` (stereo partly shown) it was more than 10 µg; in that of `CC(C)CCCC(C)[C@H]1CCC2C3CC[C@H]4C[C@H](NCCCN5CCCCN=C5N)CC[C@]4(C)C3CC[C@@]21C` (stereo partly shown), more than 10 µg. With `COC(=O)CCC(C)[C@H]1CCC2C3CC[C@H]4C[C@@H](NCCCNCCCCNCCCN)CC[C@]4(C)C3CC[C@@]21C` (stereo partly shown), the “Chick embryo diss. assay” value was more than 1 µg. Still for that read-out and setting: in the case of `COC(=O)CCC(C)[C@H]1CCC2C3C[C@@H](O)[C@H]4C[C@@H](NCCCNCCCCNCCCN)CC[C@]4(C)C3CC[C@@]21C` (stereo partly shown) it was 1 µg; in that of `COC(=O)CCC(C)[C@H]1CCC2C3C[C@@H](O)[C@H]4C[C@H](NCCN)CC[C@]4(C)C3CC[C@@]21C` (stereo partly shown), more than 1 µg; in that of `COC(=O)CCC(C)[C@H]1CCC2C3C[C@@H](O)[C@H]4C[C@@H](NCCN)CC[C@]4(C)C3CC[C@@]21C` (stereo partly shown), more than 1 µg.

Regarding `CC(CCC(=O)O)[C@H]1CCC2C3C[C@@H](O)[C@H]4C[C@@H](NCCN)CC[C@]4(C)C3CC[C@@]21C` (stereo partly shown), the “Chick embryo diss. assay” value came out at 1 µg. The same measure, in the same setting: in the case of `COC(=O)CCC(C)[C@H]1CCC2C3CC[C@@H]4C[C@H](NCCCNCCCCNCCCN)CC[C@]4(C)C3CC[C@@]21C` (stereo partly shown) it was more than 1 µg; in that of `COC(=O)CCC(C)[C@H]1CCC2C3C(CC[C@@]21C)[C@@]1(C)CC[C@H](NCCCNCCCCNCCCN)C[C@H]1C[C@H]3O` (stereo partly shown), more than 1 µg; in that of `CC(CCC(=O)O)[C@H]1CCC2C3C(CC[C@@]21C)[C@@]1(C)CC[C@@H](NCCCNCCCCNCCCN)C[C@H]1C[C@H]3O` (stereo partly shown), 1 µg. Still for that read-out and setting: the result for `CC(CCC(=O)O)[C@H]1CCC2C3C(CC[C@@]21C)[C@@]1(C)CC[C@H](NCCCNCCCCNCCCN)C[C@H]1C[C@H]3O` (stereo partly shown) reads more than 1 µg; that for `CC(CCC(=O)O)[C@H]1CCC2C3C(CC[C@@]21C)[C@@]1(C)CC[C@@H](NCCN)C[C@H]1C[C@H]3O` (stereo partly shown), more than 1 µg; that for `CC(CCC(=O)O)[C@H]1CCC2C3C(CC[C@@]21C)[C@@]1(C)CC[C@H](NCCN)C[C@H]1C[C@H]3O` (stereo partly shown), more than 1 µg. In the case of `COC(=O)CCC(C)[C@H]1CCC2C3CC[C@@H]4C[C@H](NCCN)CC[C@]4(C)C3C[C@H](O)[C@@]21C` (stereo partly shown), the “Chick embryo diss. assay” value is more than 1 µg.

Consider `CC(COS(=O)(=O)O)C(=O)CCC(C)[C@H]1CCC2C3C(CC[C@@]21C)[C@@]1(C)CC[C@H](NCCCNCCCCN)C[C@@H]1C[C@H]3O` (stereo partly shown), for which the “Chick embryo diss. assay” value is more than 10 µg.

The same experiment, now with this note: in vivo.
As to `CC(COS(=O)(=O)O)C(=O)CC[C@@H](C)[C@H]1CC[C@H]2[C@@H]3[C@H](O)C[C@H]4C[C@@H](NCCCNCCCCN)CC[C@]4(C)[C@H]3CC[C@]12C` (single isomer, unassigned) [Compound 1360], the “effect on vitelline capillaries / chick embryo” value is recorded as “the blood circulating through the embryonic vessels exhibited a brighter red color”. Same read-out and setting: in the case of `CC(C)CCC[C@@H](C)[C@H]1CC[C@H]2[C@@H]3CC[C@H]4C[C@@H](NCCCNCCCCNCCCN)CC[C@]4(C)[C@H]3CC[C@]12C` [Compound 353] it was “no effect on the chick embryo capillary bed”; in that of `C[C@H](CCC(=O)O)[C@H]1CC[C@H]2[C@@H]3[C@H](O)C[C@@H]4C[C@@H](NCCN)CC[C@]4(C)[C@H]3CC[C@]12C` [Compound 415], “especially active”.
